Values joined by “and” are separate entries in the source; they are usually repeats but may differ in a detail not shown here. Equal entries are not always repeated.
Assays:
Format in all cases: in vivo
[1] = system: Russian thistle (Salsola iberica L; SASKR); test: Postemergence herbicidal activity of mixtures in cereal crops (greenhouse, visual injury)
Protocol: (§1) Seeds of the desired test plant species were planted in Sun Gro MetroMix® 306 planting mixture, which typically has a pH of 6.0 to 6.8 and an organic matter content of about 30 percent, in plastic pots with a surface area of 103.2 square centimeters (cm^2). When required to ensure good germination and healthy plants, a fungicide treatment and/or other chemical or physical treatment was applied. The plants were grown for 7-36 days in a greenhouse with an approximate 14 hour photoperiod which was maintained at about 18° C. during the day and 17° C. during the night. Nutrients and water were added on a regular basis and supplemental lighting was provided with overhead metal halide 1000-Watt lamps as necessary. The plants were employed for testing when they reached the second or third true leaf stage.
(§2) Treatments consisted of compound (as listed in Tables 1 through 64) and a second cereal herbicide alone and in combination. Weighed amounts of esters (methyl) or salts (TEA [triethylammonium], K [potassium]) of 4-amino-3-chloro -6-(4-chloro-2-fluoro-3-methoxyphenyl)pyridine-2-carboxylic acid (Compound A) or of 6-amino-5-chloro-2-(4-chloro-2-fluoro-3-methoxyphenyl)pyrimidine-4-carboxylic acid (Compound B), were placed in 25 milliliter (mL) glass vials and dissolved in a volume of 97:3 v/v acetone/DMSO to obtain 4.5 milligrams (mg) active ingredient (ai)/mL stock solutions. […] The concentrated stock solutions were diluted to 1.5 mg ai/mL with the addition of 2 volumes of an aqueous mixture containing acetone, water, isopropyl alcohol, DMSO, Agri-dex crop oil concentrate, and Triton® X-77 surfactant in a 64.7:26.0:6.7:2.0:0.7:0.01 v/v ratio. A dilution solution was prepared by mixing 1 volume of 97:3 v/v acetone/DMSO and 2 volumes of an aqueous mixture containing acetone, water, isopropyl alcohol, DMSO, Agri-dex crop oil concentrate, and Triton® X-77 surfactant in a 64.7:26.0:6.7:2.0:0.7:0.01 v/v ratio. Compound requirements are based upon a 12 mL application volume at a rate of 187 liters per hectare (L/ha). Spray solutions of the second cereal herbicide and experimental compound mixtures were prepared by adding the stock solutions to the appropriate amount of dilution solution to form 12 mL spray solution with active ingredients in two- and three-way combinations. Formulated compounds were applied to the plant material with an overhead Mandel track sprayer equipped with 8002E nozzles calibrated to deliver 187 L/ha over an application area of 0.503 square meters (m^2) at a spray height of 18 inches (43 cm) above average plant canopy. Control plants were sprayed in the same manner with the solvent blank.
(§3) The treated plants and control plants were placed in a greenhouse as described above and watered by sub-irrigation to prevent wash-off of the test compounds. After 20-22 days, the condition of the test plants as compared with that of the control plants was determined visually and scored on a scale of 0 to 100 percent where 0 corresponds to no injury and 100 corresponds to complete kill.
(§4) Colby's equation was used to determine the herbicidal effects expected from the mixtures (Colby, S. R. 1967. Calculation of the synergistic and antagonistic response of herbicide combinations. Weeds 15:20-22.).
(§5) The following equation was used to calculate the expected activity of mixtures containing two active ingredients, A and B: Expected=A+B−(A×B/100)

[2] = system: cut-leaf geranium (Geranium dissectum L; GERDI); test: as above
Protocol: as §1, §2, §3, §4, §5

[3] = system: black mustard (Brassica nigra L; BRSNI); test: as above
Protocol: as §1, §2, §3, §4, §5

[4] = system: kochia (Kochia scoparia L; KCHSC); test: as above
Protocol: as §1, §2, §3, §4, §5

[5] = system: bird's-eye speedwell (Veronica persica L; VERPE); test: as above
Protocol: (§6) The plants were grown for 7-36 days in a greenhouse with an approximate 14 hour photoperiod which was maintained at about 18° C. during the day and 17° C. during the night. Nutrients and water were added on a regular basis and supplemental lighting was provided with overhead metal halide 1000-Watt lamps as necessary. The plants were employed for testing when they reached the second or third true leaf stage.
(§7) Treatments consisted of compound (as listed in Tables 1 through 64) and a second cereal herbicide alone and in combination. […] Control plants were sprayed in the same manner with the solvent blank.
as §3, §5

[6] = system: scented mayweed (Matricaria chamomila L; MATCH); test: as above
Protocol: as §6, §7, §3, §5

[7] = system: wild pansy (Viola tricolor L; VIOTR); test: as above
Protocol: as §6, §7, §3, §5

[8] = system: wild buckwheat (Polygonum convolvulus L; POLCO); test: as above
Protocol: as §1, §2, §3, §4, §5

[9] = system: chickweed (Stellaria media L; STEME); test: as above
Protocol: as §1, §2, §3, §4, §5

[10] = system: rigid ryegrass (Lolium rigidum L; LOLRI); test: as above
Protocol: as §1, §2, §3, §4, §5

[11] = system: Canada thistle (Cirsium arvense L; CIRAR); test: as above
Protocol: as §6, §7, §3, §5

[12] = system: Ischaemum rugosum SALISB. (ISCRU); test: Postemergence herbicidal mixtures for weed control in direct seeded rice (greenhouse, visual % injury)
[13] = system: blackgrass (Alopecurus myosuroides L; ALOMY); test: Postemergence herbicidal activity of mixtures in cereal crops (greenhouse, visual injury 0-100 percent after 20-22 days); details: 8.75 g/ha, Table 19
Protocol: as §1, with “When required to ensure good germination and healthy plants, a fungicide treatment and/or other chemical or physical treatment was applied.” left out
Treatments consisted of compound (as listed in Tables 1 through 64) and a second cereal herbicide alone and in combination. […] The concentrated stock solutions were diluted to 1.5 mg ai/mL with the addition of 2 volumes of an aqueous mixture containing acetone, water, isopropyl alcohol, DMSO, Agri-dex crop oil concentrate, and Triton® X-77 surfactant in a 64.7:26.0:6.7:2.0:0.7:0.01 v/v ratio. A dilution solution was prepared by mixing 1 volume of 97:3 v/v acetone/DMSO and 2 volumes of an aqueous mixture containing acetone, water, isopropyl alcohol, DMSO, Agri-dex crop oil concentrate, and Triton® X-77 surfactant in a 64.7:26.0:6.7:2.0:0.7:0.01 v/v ratio. Compound requirements are based upon a 12 mL application volume at a rate of 187 liters per hectare (L/ha). […] Formulated compounds were applied to the plant material with an overhead Mandel track sprayer equipped with 8002E nozzles calibrated to deliver 187 L/ha over an application area of 0.503 square meters (m^2) at a spray height of 18 inches […] above average plant canopy. Control plants were sprayed in the same manner with the solvent blank.
as §3, §4, §5

Nc1cc(Cl)nc(C(=O)O)c1Cl [Aminopyralid]
SASKR Ob ([1]; 2.5 g/ha alone): 18%
GERDI Ob ([2]; 2.5 g/ha alone): 0%
BRSNI Ob ([3]; 2.5 g/ha alone): 0%
KCHSC Ob ([4]; 2.5 g/ha alone): 0%
VERPE Ob ([5]; 2.5 g/ha alone): 0%
MATCH Ob ([6]; 2.5 g/ha alone): 10% and 8%
VIOTR Ob ([7]; 2.5 g/ha alone): 27%

CCC(Oc1ccc(F)c(C(F)(F)F)c1)C(=O)NCc1ccccc1 (stereo not shown) [Beflubutamid]
POLCO Ob ([8]; 35 g/ha): 10%
POLCO Ob ([8]; 70 g/ha): 20%
GERDI Ob ([2]; 35 g/ha): 0%
GERDI Ob ([2]; 70 g/ha): 0%
BRSNI Ob ([3]; 35 g/ha): 30%
BRSNI Ob ([3]; 70 g/ha): 30%
STEME Ob ([9]; 35 g/ha): 10%
STEME Ob ([9]; 70 g/ha): 10%
VERPE Ob ([5]; 35 g/ha): 15%
VERPE Ob ([5]; 70 g/ha): 23%
VIOTR Ob ([7]; 35 g/ha): 15%
VIOTR Ob ([7]; 70 g/ha): 23%

C[N+](C)(C)CCCl [Chlormequat]
POLCO Ob ([8]; 155 g/ha alone): 10%
GERDI Ob ([2]; 155 g/ha alone): 0%
BRSNI Ob ([3]; 155 g/ha alone): 0%
KCHSC Ob ([4]; 155 g/ha alone): 0%
STEME Ob ([9]; 155 g/ha alone): 0%
MATCH Ob ([6]; 155 g/ha alone): 0%

COc1c(Cl)ccc(-c2cc(N)c(Cl)c(C(=O)[O-])n2)c1F.[K+] [Compound A K-salt]
SASKR Ob ([1]; 8.75 g/ha alone): 63%
SASKR Ob ([1]; 17.5 g/ha alone): 67%
SASKR Ob ([1]; 35 g/ha alone): 73%
KCHSC Ob ([4]; 8.75 g/ha alone): 67%
KCHSC Ob ([4]; 17.5 g/ha alone): 77%
KCHSC Ob ([4]; 35 g/ha alone): 90%
KCHSC Ob ([4]; alone 8.75 g/ha): 67%
KCHSC Ob ([4]; alone 17.5 g/ha): 77%
KCHSC Ob ([4]; alone 35 g/ha): 90%
VERPE Ob ([5]; 8.75 g/ha alone): 73%
VERPE Ob ([5]; 17.5 g/ha alone): 78%
VERPE Ob ([5]; 35 g/ha alone): 83%
VERPE Ob ([5]; alone 8.75 g/ha): 73%
VERPE Ob ([5]; alone 17.5 g/ha): 78%
VERPE Ob ([5]; alone 35 g/ha): 83%
MATCH Ob ([6]; 8.75 g/ha alone): 50%
MATCH Ob ([6]; 17.5 g/ha alone): 62%
MATCH Ob ([6]; 35 g/ha alone): 57%
MATCH Ob ([6]; alone 8.75 g/ha): 50%
MATCH Ob ([6]; alone 17.5 g/ha): 62%
MATCH Ob ([6]; alone 35 g/ha): 57%
VIOTR Ob ([7]; 8.75 g/ha alone): 20%
VIOTR Ob ([7]; 17.5 g/ha alone): 48%
VIOTR Ob ([7]; 35 g/ha alone): 42%

COc1cc(OC)nc(NC(=O)NS(=O)(=O)c2nc(C(F)(F)F)ccc2C(=O)O)n1 [Flupyrsulfuron, 2-[[[[(4,6-dimethoxy-2-pyrimidinyl)amino]carbonyl]amino]sulfonyl]-6-(trifluoromethyl)-3-pyridinecarboxylic acid, reference compound]
LOLRI Ob ([10]; 5 g/ha, Table 12): 0%
VERPE Ob ([5]; 5 g/ha): 0%
pest or weed control at 5 g/ha ([5]; Veronica persica, post-emergence, read-out: VERPE Ob): 0%
pest or weed control at 5 g/ha ([7]; Viola tricolor, post-emergence, read-out: VIOTR Ob): 0%
CIRAR Ob ([11]; 5 g/ha): 20%

COCc1cnc(C2=NC(C)(C(C)C)C(=O)N2)c(C(=O)O)c1 (stereo not shown) [Imazamox]
% Injury ISCRU Ob ([12]; alone 22.4 g/ha): 50%

CCc1cnc(C2=NC(C)(C(C)C)C(=O)N2)c(C(=O)O)c1 (stereo not shown) [Imazethapyr]
% Injury ISCRU Ob ([12]; alone 35 g/ha): 20%

CC(C)c1ccc(NC(=O)N(C)C)cc1 [Isoproturon]
SASKR Ob ([1]; 300 g/ha alone): 33%
pest or weed control at 300 g/ha ([3]; Brassica, post-emergence, 300 g/ha alone, read-out: BRSNI Ob): 40%
KCHSC Ob ([4]; 300 g/ha alone): 50%
pest or weed control at 300 g/ha ([7]; Viola tricolor, post-emergence, 300 g/ha alone, read-out: VIOTR Ob): 0%

CCCN(CCC)C(=O)SCc1ccccc1 [Prosulfocarb]
SASKR Ob ([1]; 500 g/ha alone): 0%
pest or weed control at 500 g/ha ([9]; Stellaria media, post-emergence, 500 g/ha alone, read-out: STEME Ob): 0%
pest or weed control at 500 g/ha ([6]; Matricaria, post-emergence, 500 g/ha alone, read-out: MATCH Ob): 0%

CCS(=O)(=O)c1nc2ccccn2c1S(=O)(=O)NC(=O)Nc1nc(OC)cc(OC)n1 [Sulfosulfuron, N-[[(4,6-dimethoxy-2-pyrimidinyl)amino]carbonyl]-2-(ethylsulfonyl)imidazo[1,2-a]pyridine-3-sulfonamide, reference compound]
ALOMY Ob [13]: 85%
LOLRI ([10]; 8.75 g/ha, Table 19): 10%
pest or weed control at 8.75 g/ha ([5]; Veronica persica, post-emergence, 8.75 g/ha, read-out: VERPE Ob): 30%
CIRAR Ob ([11]; 8.75 g/ha): 10%
